Here are results for 18 compounds from patent US11161864B2, “Sting agonists” (Venenum Biodesign, LLC, priority 2018, dated 2021).

Molecules are shown by their SMILES. Read-outs that look alike come from different tables or passages of the source.

In test [1] the target is wild-type (WT) truncated human STING protein, amino acids 155-379 (Homo sapiens (Human), UniProt Q86WV6, H232R). Briefly: Human WT STING [3H] 2′,3′-cGAMP scintillation proximity competition binding assay. An excerpt:
(§1) A human STING [^3H] 2′,3′-cGAMP scintillation proximity competition binding assay was utilized to detect binding of compounds to STING protein. […] The protein encoding plasmid contained a HIS tag, followed by an Avi tag and then a SUMO tag, which were followed by the STING coding sequence within the pET-28a (+) vector. The plasmid was transfected into a BL21 (DE3)/BirA E. coli co-expression strain. Protein was purified from the bacterial lysate using a cobalt-affinity column. The purified protein was dialyzed against PBS and then 20% glycerol was added prior to storage at −80° C.
(§2) 2′,3′-cGAMP in assay buffer (50 mM Tris pH 7.5, 100 mM NaCl, 0.1% Fatty Acid Free BSA). Test compounds (2.5 μL) were added to the plate first followed by a 25 μL mixture of STING protein, streptavidin PVT SPA beads (Perkin Elmer) and 10 μL [^3H] 2′,3′-cGAMP. Plates were incubated at room temperature for 18 hrs and read on a Wallac MicroBeta TriLux (Perkin Elmer).

The target in test [2] is AQ variant of truncated human STING protein, amino acids 155-379 (Homo sapiens (Human), UniProt Q86WV6, G230A/H232R/R293Q). Briefly: Human AQ STING [3H] 2′,3′-cGAMP scintillation proximity competition binding assay.
Chain of AQ variant of truncated human STING protein, amino acids 155-379 (Q86WV6 155-379 G230A/H232R/R293Q): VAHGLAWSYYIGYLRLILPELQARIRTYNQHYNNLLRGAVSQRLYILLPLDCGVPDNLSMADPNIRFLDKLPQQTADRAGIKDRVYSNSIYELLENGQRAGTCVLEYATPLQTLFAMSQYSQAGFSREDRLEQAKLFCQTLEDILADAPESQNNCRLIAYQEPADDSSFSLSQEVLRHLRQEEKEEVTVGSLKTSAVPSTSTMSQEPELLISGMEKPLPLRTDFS
Source text: as §1, §2
(Scintillation proximity formats need no separation of bound from free tracer.)

For test [3], the target named is murine STING protein (amino acids 154-378) (Mus musculus (Mouse), UniProt Q3TBT3). Briefly: Murine STING [3H] 2′,3′-cGAMP scintillation proximity competition binding assay.
Chain of murine STING protein (amino acids 154-378) (Q3TBT3 154-378): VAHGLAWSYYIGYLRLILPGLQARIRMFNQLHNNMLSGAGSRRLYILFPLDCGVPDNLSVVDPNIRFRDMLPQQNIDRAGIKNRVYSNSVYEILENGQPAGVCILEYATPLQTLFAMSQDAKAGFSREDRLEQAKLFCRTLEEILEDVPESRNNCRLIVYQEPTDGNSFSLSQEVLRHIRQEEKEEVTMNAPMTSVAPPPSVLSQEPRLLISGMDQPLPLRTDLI
Test [4] concerns STING pathway, THP1 cells. The experiment in a line: Human IFN-α/β induction assay (THP1 supernatants on HEK-Blue IFN-α/β reporter cells). Type of test: cell-based. Particulars: THP1 cells 5 hrs, HEK-Blue reporter cells 24 hrs.
Description: Genetically engineered human type-1 Interferons (IFN-α/β) sensor cells-HEK Blue™ IFNα/β cells (Invivogen) were employed to measure the type-1 IFNs produced by THP1 cells that are treated with activators of STING. The human embryonic (HEK) Blue™ cells are specially designed to monitor the activation of JAK/STAT pathway induced by type 1 IFNs. Briefly, THP1 cells are treated with compounds for 5 hrs. In the second step, supernatants of THP1 cells are transferred to HEK Blue™ IFNα/β reporter cells and incubated for 24 hrs. The secreted embryonic alkaline phosphatase (SEAP) activity in the supernatants of HEK blue IFNα/3 reporter cells is measured and used to determine the quantities of IFNs.
HEK-Blue IFN-α/β reporter cells (Invivogen) were used to measure the secretion of IFN-α/β into culture supernatants of THP1 cells following STING pathway activation. In the first step, THP1 cells were cultured in presence of STING activators for 5 hrs at 37° C., in a 5% CO2 tissue culture incubator, which facilitates the release of IFN-α/β into the supernatants. In the second step, cell supernatants from THP1 cells were transferred to HEK-Blue IFN-α/β reporter cells and incubated at 37° C., in a 5% CO2 incubator for 24 hrs. HEK-Blue IFN-α/β reporter cells are specifically designed to monitor the activation of JAK-STAT pathway activation by type 1 IFNs. These cells express a secreted embryonic alkaline phosphatase (SEAP) reporter gene under the control of ISG54 promoter, which is a well-known interferon stimulatory gene activated by type 1 IFNs. Upon IFN-α/β stimulation, HEK-Blue IFN-α/β reporter cells activate the JAK-STAT pathway and subsequently the expression of the reporter gene. SEAP which is secreted in the supernatant is easily detectable using alkaline phosphatase detection medium (Quanti-Blue reagent from Invivogen).
These assays were run by adding 2 μL of compound stock solution to tissue culture treated 384-well plates with electronic pipettes. Compounds were diluted in autoclaved sterile water, initially spotted on the intermediate dilution plate and then to the assay plate. […]
The test system of test [5] is STING signaling, RAW-Dual reporter cells. The experiment in a line: Measurement of mouse IFN-β (ELISA). Format: cell-based.
Source text: Mouse Interferon-β (IFN-β) in the supernatants of murine macrophages treated with STING activators was quantified using sandwich enzyme linked immunosorbent assay (ELISA). Briefly, IFN-β binds to plates coated with antibody and detection is accomplished using a detection antibody followed by streptavidin conjugated to horseradish peroxidase. Tetramethyl-benzidine is used as the substrate in this kit (PBL Assay Science). […] In this invention, mouse IFN-β ELISA is used to determine the potency of compound on STING pathway activation in mouse macrophages.
Murine macrophage derived cell line RAW-Dual reporter cells (Invivogen) were used to measure the IFN-β produced by STING signaling activation. Briefly, 20,000 cells in 27 μL were seeded into tissue culture treated 384-well plate that contained 3 μL of test compound. Cells were incubated at 37° C., in a 5% CO2 incubator for 5.5 hours. Supernatants from treated cells were diluted 20-fold and prior to measurement of IFN-β levels using ELISA kit (PBL Assay Science). 100 μL of diluted sample was added to ELISA plate. Plates were incubated at RT for 1 hour with shaking at 650 rpm. Post incubation, samples were aspirated from wells and the wells were washed 4 times. Diluted antibody (50 μL) was added to plates and incubated at RT for 30 minutes with shaking, followed by aspiration of antibody and 4× washes. Diluted HRP (horseradish peroxidase) solution (50 μL) was added and incubated for 10 minutes, followed by aspiration of the solution and 4× wash steps. After the final wash steps, plates were incubated with 100 μL of TMB (tetramethyl benzidine) substrate for 10 minutes, followed by addition of 100 μL of stop solution and plates were read on Envision plate reader for optical density.
In test [6] the test system is CT-26 tumor. The experiment in a line: CT-26 tumor bearing mice, intra-tumoral treatment and re-challenge. Particulars: 50 μg intra-tumoral Days 0, 3, 7.
The mark [7] stands for this setting: read-out: Human WT Binding IC50.
[8] abbreviates: read-out: Human AQ Binding IC50.

Chain of wild-type (WT) truncated human STING protein, amino acids 155-379 (Q86WV6 155-379 H232R): as the sequence (Q86WV6 155-379 G230A/H232R/R293Q) above, with A76G, Q139R counted along it

`Nc1nc2c(ncn2[C@@H]2O[C@@H]3COP(=O)(S)OCCn4c(nc5cncnc54)COP(=O)(S)O[C@@H]2[C@H]3F)c(=O)[nH]1` (single isomer, unassigned) [Example 25D]: the IC50 in test [1] (setting [7]) and in test [2] (setting [8]) was under 1 µM throughout.

For `Nc1nc2c(ncn2[C@@H]2O[C@@H]3COP(=O)(S)OCCn4c(nc5cncnc54)COP(=O)(S)O[C@@H]2C3(F)F)c(=O)[nH]1` (stereo partly drawn) [Example 36D, (1S,21R,23R)-23-(2-Amino-6-oxo-6,9-dihydro-1H-purin-9-yl)-24,24-difluoro-3,18-disulfanyl-2,4,17,19,22-pentaoxa-7,10,12,14-tetraaza-3lambda5,18lambda5-diphosphatetracyclo[19.2.1.06,14.08,13]tetracosa-6,8,10,12-tetraene-3,18-dione], the IC50 in test [1] (setting [7]) was 10 to 100 µM; in test [2] (setting [8]), 1 to 9.99 µM; in test [3] (read-out: Murine Binding IC50), under 1 µM.

Take `COCc1ncc2nc3n(c2n1)CCOP(=O)(S)OC[C@H]1O[C@@H](n2cnc4c(=O)[nH]c(N)nc42)[C@H](OP(=O)(S)OC3)[C@@H]1F` (stereo partly drawn) [Example 40C, (1S,21R,23R,24R)-23-(2-Amino-6-oxo-6,9-dihydro-H-purin-9-yl)-24-fluoro-11-(methoxymethyl)-3,18-disulfanyl-2,4,17,19,22-pentaoxa-7,10,12,14-tetraaza-3lambda5,18lambda5-diphosphatetracyclo[19.2.1.06,14.08,13]tetracosa-6,8,10,12-tetraene-3,18-dione]: the IC50 in test [1] (setting [7]) is 10 to 100 µM; in test [2] (setting [8]), 1 to 9.99 µM; in test [3] (read-out: Murine Binding IC50) it was under 1 µM.

On to `Nc1nc2ncn([C@@H]3O[C@@H]4COP(=O)(S)OCCn5c(nc6cc(Cl)cnc65)COP(=O)(S)O[C@@H]3[C@@H]4F)c2c(=O)[nH]1` (single isomer, unassigned) [Example 13B], for which the results for the IC50 in test [1] (setting [7]), in test [2] (setting [8]) and in test [3] (read-out: Murine Binding IC50) were 10 to 100 µM, 10 to 100 µM and 1 to 9.99 µM, respectively.

For `Nc1nc2c(ncn2[C@@H]2O[C@@H]3COP(=O)(S)OCCn4c(nc5cncnc54)COP(=O)(S)O[C@@H]2[C@@H]3F)c(=O)[nH]1` (single isomer, unassigned) [Example 1D], the IC50 in test [2] (setting [8]) is under 1 µM. For the same compound, the EC50 in test [4] (Homo sapiens, THP-1) was under 5 µM; in test [5], over 5 µM.

Take `Nc1nc2c(ncn2[C@@H]2O[C@@H]3COP(=O)(O)OCCn4c(nc5cncnc54)COP(=O)(O)O[C@@H]2[C@@H]3F)c(=O)[nH]1` [Example 4, (1S,21R,23R,24R)-23-(2-Amino-6-oxo-6,9-dihydro-1H-purin-9-yl)-24-fluoro-3,18-dihydroxy-2,4,17,19,22-pentaoxa-7,10,12,14-tetraaza-3lambda5,18lambda5-diphosphatetracyclo[19.2.1.06,14.08,13]tetracosa-6,8(13),9,11-tetraene-3,18-dione]: the half-maximal inhibitory concentration (IC50) in test [1] (setting [7]) was 10 to 100 µM; in test [2] (setting [8]), 1 to 9.99 µM; in test [3] (read-out: Murine Binding IC50), under 1 µM.

For the compound `Nc1nc2c(ncn2[C@@H]2O[C@@H]3COP(=O)(O)OCCn4c(nc5cncnc54)COP(=O)(O)O[C@@H]2[C@@H]3O)c(=O)[nH]1` [Example 10, (1R,21R,23R,24R)-23-(2-Amino-6-oxo-6,9-dihydro-1H-purin-9-yl)-3,18,24-trihydroxy-2,4,17,19,22-pentaoxa-7,10,12,14-tetraaza-3lambda5,18lambda5-diphosphatetracyclo[19.2.1.06,14.08,13]tetracosa-6,8,10,12-tetraene-3,18-dione], the IC50 in test [1] (setting [7]) was 10 to 100 µM; in test [2] (setting [8]) it was 1 to 9.99 µM; in test [3] (read-out: Murine Binding IC50) it was under 1 µM.

As for `CO[C@H]1[C@H]2OP(=O)(S)OCc3nc4cncnc4n3CCOP(=O)(S)OC[C@H]1O[C@H]2n1cnc2c(=O)[nH]c(N)nc21` (single isomer, unassigned) [Example 27D], the IC50 in test [1] (setting [7]) was 1 to 9.99 µM; in test [2] (setting [8]) it was under 1 µM; in test [3] (read-out: Murine Binding IC50), under 1 µM.

Regarding `Nc1ncnc2c1ncn2[C@@H]1O[C@@H]2COP(=O)([S-])O[C@@H]3[C@H](O)[C@@H](COP([O-])(=S)O[C@H]2[C@H]1O)O[C@H]3n1cnc2c(N)ncnc21.[Na+].[Na+]` (some centres unmarked) [ADU-S100, reference compound], the EC50 in test [4] was over 10 µM; in test [5], over 5 µM. For the same compound, the “Number of surviving mice” value in test [6] (Day 0), in test [6] (Day 3), in test [6] (Day 7), in test [6] (Day 10), in test [6] (Day 14) and in test [6] (Day 17) was 10/10 each time. The “Number of surviving mice” value in test [6] (Day 20) is 10/10; in test [6] (Day 23) it was 7/10; in test [6] (Day 35), 1/10. Also, the “animals with complete regression of the tumors” value in test [6] (by Day 30) is “None”.

As to `Nc1nc2c(ncn2[C@@H]2O[C@@H]3COP(=O)(S)OCCn4c(nc5c(N)ncnc54)COP(=O)(S)O[C@@H]2[C@@H]3F)c(=O)[nH]1` (single isomer, unassigned) [Example 7B], the figures for the IC50 in test [1] (setting [7]), in test [2] (setting [8]) and in test [3] (read-out: Murine Binding IC50) were 10 to 100 µM, 1 to 9.99 µM and under 1 µM, respectively.

As to `Nc1nc2c(ncn2[C@@H]2O[C@@H]3COP(=O)(S)OCCn4c(nc5c(N)ncnc54)COP(=O)(S)O[C@@H]2[C@@H]3F)c(=O)[nH]1` (single isomer, unassigned) [Example 7C], the IC50 in test [1] (setting [7]), in test [2] (setting [8]) and in test [3] (read-out: Murine Binding IC50) was under 1 µM each time.

Consider `CO[C@H]1[C@H]2OP(=O)(S)OCc3nc4cncnc4n3CCOP(=O)(S)OC[C@H]1O[C@H]2n1cnc2c(=O)[nH]c(N)nc21` (single isomer, unassigned) [Example 27C], for which the IC50 in test [1] (setting [7]), in test [2] (setting [8]) and in test [3] (read-out: Murine Binding IC50) was under 1 µM each time.

As to `Nc1nc2c(ncn2[C@@H]2O[C@@H]3COP(=O)(O)O[C@@H]4[C@H](O)[C@@H](COP(=O)(O)O[C@@H]2[C@@H]3O)O[C@H]4n2cnc3c(N)ncnc32)c(=O)[nH]1` [2′,2′-cGAMP, reference compound], the IC50 in test [1] (reference compound, read-out: IC50 using the WT STING protein) was 0.562 µM; in test [2] (reference compound, unit printed as 'M' (sic), read-out: IC50 using the AQ STING protein) it was 0.098 µM; in test [3] (reference compound, read-out: IC50, murine STING binding), 0.055 µM.

With `Nc1ncnc2c1ncn2[C@@H]1O[C@@H]2COP(=O)(S)OCCn3c(nc4cncnc43)COP(=O)(S)O[C@@H]1[C@@H]2O` (stereo partly drawn) [Example 8, (1R,21R,23R,24R)-23-(6-Amino-9H-purin-9-yl)-24-hydroxy-3,18-disulfanyl-2,4,17,19,22-pentaoxa-7,10,12,14-tetraaza-3lambda5,18lambda5-diphosphatetracyclo[19.2.1.06,14.08,13]tetracosa-6,8(13),9,11-tetraene-3,18-dione], the figures for the IC50 in test [1] (setting [7]), in test [2] (setting [8]) and in test [3] (read-out: Murine Binding IC50) were 10 to 100 µM, 10 to 100 µM and 1 to 9.99 µM, respectively.

As to `Nc1nc2c(ncn2[C@@H]2O[C@@H]3COP(=O)(S)OCCn4c(nc5c(N)ncnc54)COP(=O)(S)O[C@@H]2[C@@H]3F)c(=O)[nH]1` (single isomer, unassigned) [Example 7D], the values for the IC50 in test [1] (setting [7]), in test [2] (setting [8]) and in test [3] (read-out: Murine Binding IC50) were 1 to 9.99 µM, under 1 µM and under 1 µM, respectively.

On to `Nc1nc2c(ncn2[C@@H]2O[C@@H]3COP(=O)(S)OCCCn4c(nc5cncnc54)COP(=O)(S)O[C@@H]2[C@@H]3O)c(=O)[nH]1` (stereo partly drawn) [Example 9, (1R,22R,24R,25R)-24-(2-Amino-6-oxo-6,9-dihydro-1H-purin-9-yl)-25-hydroxy-3,19-disulfanyl-2,4,18,20,23-pentaoxa-7,10,12,14-tetraaza-3lambda5,19lambda5-diphosphatetracyclo[20.2.1.06,14.08,13]pentacosa-6,8,10,12-tetraene-3,19-dione], for which the IC50 is 10 to 100 µM in test [1] (setting [7]), 1 to 9.99 µM in test [2] (setting [8]) and 1 to 9.99 µM in test [3] (read-out: Murine Binding IC50).

As to `CO[C@H]1[C@H]2OP(=O)(S)OCc3nc4cncnc4n3CCOP(=O)(S)OC[C@H]1O[C@H]2n1cnc2c(=O)[nH]c(N)nc21` (single isomer, unassigned) [Example 27B], the IC50 in test [1] (setting [7]) was 10 to 100 µM; in test [2] (setting [8]), 1 to 9.99 µM; in test [3] (read-out: Murine Binding IC50), under 1 µM.

On to `Nc1nc2c(ncn2[C@@H]2O[C@@H]3COP(=O)(S)OCCn4c(nc5c(N)ncnc54)COP(=O)(S)O[C@@H]2[C@@H]3F)c(=O)[nH]1` (single isomer, unassigned) [Example 7A], for which the IC50 in test [1] (setting [7]) was 10 to 100 µM; in test [2] (setting [8]), 1 to 9.99 µM; in test [3] (read-out: Murine Binding IC50), under 1 µM.

One may read the IC50 as the midpoint of a concentration-inhibition curve. Usually EC50 stands for the concentration giving half of the maximal effect. High values mean weaker potency, low ones greater potency.
